A short description of series [1]: Inhibition of HCV 1a NS5B polymerase. Further details: species or system Hepatitis C virus subtype 1a.
Series [2] relates to Hepatitis C virus. Briefly: Inhibition of HCV 1b NS5B polymerase. Further details: species or system Hepatitis C virus subtype 1b.
The subject of series [3] is Hepatitis C virus. Briefly: Antiviral activity against HCV 1b in presence of 5% fetal calf serum by replicon based assay. Type of series: functional, organism-based, Hepacivirus hominis. Conditions: genotype 1b.
Series [4] has as its system Hepatitis C virus. Briefly: Antiviral activity against HCV 1a in presence of 5% fetal calf serum by replicon based assay. Type of series: functional, organism-based, Hepacivirus hominis. Conditions: subtype 1a. For orientation: In antiviral work, replicon cells carry a viral genome segment that copies itself.
Series [5] can be described thus: Half life in rat at 5 mg/kg, po. Type of series: ADME, organism-based. On the set-up: dose 5 mg/kg, route oral. Conditions: in vivo.
Series [6] is described as follows: AUC (0 to infinity) in rat at 5 mg/kg, po. Conditions: plasma. Further details: time infinity, dose 5 mg/kg, route oral. Type of series: ADME, organism-based.
Series [7] in a line: Drug level in rat plasma at 5 mg/kg, po after 6 hrs. Type of series: ADME, organism-based. On the set-up: dose 5 mg/kg, route oral. Conditions: read-out: Activity.
The nature of series [8]: Volume of distribution at terminal phase in rat at 5 mg/kg, iv. It is filed as ADME, organism-based. Further details: dose 5 mg/kg, route intravenous. Conditions: in vivo, read-out: Vbeta.
Series [9] is described as follows: Drug level in rat liver at 5 mg/kg, po after 12 hrs. Conditions: read-out: Activity. It is filed as ADME, organism-based. Further details: dose 5 mg/kg, route oral.
The nature of series [10]: Drug level in rat plasma at 5 mg/kg, po after 12 hrs. Type of series: ADME, organism-based. Conditions: read-out: Activity. On the set-up: dose 5 mg/kg, route oral.
A short description of series [11]: Half life in rat at 5 mg/kg, iv. On the set-up: dose 5 mg/kg, route intravenous. Type of series: ADME, organism-based. Conditions: in vivo.
The nature of series [12]: Drug level in rat liver at 5 mg/kg, po after 1 hr. Conditions: read-out: Activity. Further details: dose 5 mg/kg, route oral. It is filed as ADME, organism-based.
The nature of series [13]: Oral bioavailability in rat at 5 mg/kg. Conditions: in vivo. It is filed as ADME, organism-based.
Series [14] can be described thus: Ratio of drug level in liver to plasma in rat at 5 mg/kg, po after 12 hrs. It is filed as ADME, organism-based. Further details: dose 5 mg/kg, route oral. Conditions: other tissue.
Series [15] is described as follows: Ratio of drug level in liver to plasma in rat at 5 mg/kg, po after 6 hrs. It is filed as ADME, organism-based. Further details: dose 5 mg/kg, route oral. Conditions: other tissue.
Series [16] can be described thus: Volume of distribution at steady state in rat at 5 mg/kg, iv. Further details: dose 5 mg/kg, route intravenous. It is filed as ADME, organism-based. Conditions: in vivo, read-out: Vdss.
Series [17] can be described thus: Drug level in rat liver at 5 mg/kg, po after 24 hrs. It is filed as ADME, organism-based. Conditions: read-out: Activity. Further details: dose 5 mg/kg, route oral.
Series [18] can be described thus: Drug level in rat liver at 5 mg/kg, po after 6 hrs. It is filed as ADME, organism-based. On the set-up: dose 5 mg/kg, route oral. Conditions: read-out: Activity.
Series [19] can be described thus: Tmax in rat at 5 mg/kg, po. Type of series: ADME, organism-based. On the set-up: dose 5 mg/kg, route oral. Conditions: in vivo.
Series [20] can be described thus: Cmax in rat plasma at 5 mg/kg, po. Type of series: ADME, organism-based. Further details: dose 5 mg/kg, route oral.
The nature of series [21]: Ratio of drug level in liver to plasma in rat at 5 mg/kg, po after 1 hr. It is filed as ADME, organism-based. Conditions: other tissue. On the set-up: dose 5 mg/kg, route oral.
The nature of series [22]: Drug level in rat plasma at 5 mg/kg, po after 1 hr. Conditions: read-out: Activity. It is filed as ADME, organism-based. On the set-up: dose 5 mg/kg, route oral.
Series [23] is described as follows: AUC (0 to infinity) in rat at 5 mg/kg, iv. Type of series: ADME, organism-based. On the set-up: time infinity, dose 5 mg/kg, route intravenous. Conditions: plasma.
The nature of series [24]: Plasma clearance in rat at 5 mg/kg, iv. Type of series: ADME, organism-based. On the set-up: dose 5 mg/kg, route intravenous.

Experimental findings from ChEMBL document CHEMBL1155129, “Hepatitis C NS5B polymerase inhibitors: 4,4-Dialkyl-1-hydroxy-3-oxo-3,4-dihydronaphthalene-3-yl benzothiadiazine derivatives” (Bioorg Med Chem Lett, 2008) are described below.

For the compound `CCCCC1(CCCC)C(=O)C(C2=NS(=O)(=O)c3ccccc3N2)=C(O)c2ccccc21`, the IC50 stood at 990 nM in series [1] and 2270 nM with Hepatitis C virus [2].

Regarding `CC1(C)C(=O)C(C2=NS(=O)(=O)c3cc(NS(C)(=O)=O)ccc3N2)=C(O)c2ccccc21`, the 50% inhibitory concentration (IC50) in [1] is 930 nM; in the series with Hepatitis C virus [2] it was 6260 nM.

In turn, `CC(C)CCC1(CCC(C)C)C(=O)C(C2=NS(=O)(=O)c3cc(OCC(N)=O)ccc3N2)=C(O)c2ccccc21` returned an IC50 in series [1] of 320 nM. Besides, the EC50 was above 3000 nM in the series with Hepatitis C virus [3] and 10100 nM with Hepatitis C virus [4].

`CCCCC1(CCCC)C(=O)C(C2=NS(=O)(=O)c3cc(NS(C)(=O)=O)ccc3N2)=C(O)c2ccccc21`: the half-life in series [5] and in series [11] was 4.3 h in each case. The AUC(0-inf) in [6] came out at 6400 ng·h/mL; in [23], 7300 ng·h/mL. Besides, the IC50 in [1] came out at 10 nM; in the series on Hepatitis C virus [2] it was 73 nM. Further, the concentration at 6 h in series [7] is 410 ng/mL; in series [18], 20800 ng/g. In addition, the values for the EC50 with Hepatitis C virus [3] and in the series with Hepatitis C virus [4] were 48 nM and 280 nM, respectively. Moreover, the Vd in series [8] turned out to be 6.11 L/kg; in series [16], 1.87 L/kg. Besides, the concentration at 12 h in series [9] was determined as 4600 ng/g; in series [10], 250 ng/mL. Moreover, the concentration at 1 h was 14200 ng/g in [12] and 450 ng/mL in [22]. The same compound yielded a bioavailability in [13] of 94.3%. Moreover, the Ratio in series [14] was determined as 17.3 mL/g; in series [15], 48.2 mL/g; in [21] it was 34.3 mL/g. Moreover, the concentration at 24 h in series [17] came to 150 ng/g. The time of peak concentration (Tmax) in [19] was found to be 3 h. In series [20], this compound showed a Cmax of 580 ng/mL. In addition, the clearance in [24] is 11.7 mL/min/kg.

In [1], `CC(C)CCn1c(=O)c(C2=NS(=O)(=O)c3ccccc3N2)c(O)c2ccccc21` yielded an IC50 of 540 nM. The EC50 in the series with Hepatitis C virus [3] came out at 250 nM.

In series [1], `CC(C)CCC1(CCC(C)C)C(=O)C(C2=NS(=O)(=O)c3ccccc3N2)=C(O)c2ccccc21` registered an IC50 of 820 nM. This counts as sub-micromolar.

For `O=c1c(C2=NS(=O)(=O)c3ccccc3N2)c(O)c2ccccc2n1NC1CCC1`, the values for the IC50 (in series [1]; in the series with Hepatitis C virus [2]) were 280 nM and 480 nM, respectively. Also, the EC50 in the series with Hepatitis C virus [3] came to 100 nM.

As to `CCCC1(CCC)C(=O)C(C2=NS(=O)(=O)c3cc(NS(C)(=O)=O)ccc3N2)=C(O)c2ccccc21`, the IC50 in series [1] was determined as 99 nM; in the series on Hepatitis C virus [2], 130 nM. In addition, the EC50 with Hepatitis C virus [3] was found to be 22 nM.

The compound `CCCC1(CCC)C(=O)C(C2=NS(=O)(=O)c3cc(OCC(N)=O)ccc3N2)=C(O)c2ccccc21` displayed an IC50 in series [1] of 240 nM. Also, the concentration for a half-maximal effect (EC50) is 810 nM in the series with Hepatitis C virus [3] and above 10000 nM in the series with Hepatitis C virus [4].

Regarding `CC1(C)C(=O)C(C2=NS(=O)(=O)c3ccccc3N2)=C(O)c2ccccc21`, the results for the IC50 (in [1]; in the series on Hepatitis C virus [2]) were 2200 nM and 6260 nM, respectively.

For `CCCCC1(CCCC)C(=O)C(C2=NS(=O)(=O)c3cc(OCC(N)=O)ccc3N2)=C(O)c2ccccc21`, the IC50 came to 260 nM in series [1] and 330 nM in the series with Hepatitis C virus [2]. The EC50 with Hepatitis C virus [3] was 290 nM; in the series on Hepatitis C virus [4], 9640 nM.

In series [1], `CCCC1(CCC)C(=O)C(C2=NS(=O)(=O)c3ccccc3N2)=C(O)c2ccccc21` returned an IC50 of 2200 nM.

On to `CC(C)CCC1(CCC(C)C)C(=O)C(C2=NS(=O)(=O)c3cc(NS(C)(=O)=O)ccc3N2)=C(O)c2ccccc21`, for which the IC50 in series [1] came out at 68 nM; in the series on Hepatitis C virus [2], 390 nM.

Usually IC50 stands for the midpoint of a concentration-inhibition curve. Higher therefore signals a need for much substance. Broadly, the EC50 is the concentration giving half of the maximal effect. What is called half-life is the time in which the quantity being followed falls by half. High values mean slow decline, low ones rapid decline. As a reminder, the AUC(0-inf) is total exposure, with the tail of the curve extrapolated. A higher AUC(0-inf) goes with high exposure. The term bioavailability denotes the share of a dose that reaches the circulation, judged against a reference dose that is usually intravenous. A low value points to poor availability. For orientation: Tmax means the time from dosing to the highest level. The Cmax is the maximum level reached in the sampled fluid or tissue. For orientation: clearance means the rate of elimination divided by the concentration.
